# Assay results as given in patent US20160339022A1, “TREATMENT OF NEUROBLASTOMA WITH HISTONE DEACETYLASE INHIBITORS” (Acetylon Pharmaceuticals Inc., priority 2015, published 2016).
# Assays:
# neuroblastoma cells = test: Histone acetylation in neuroblastoma cells by western blot; type: cell-based; settings: western blot at 24 hours
# SK-N-BE(2) cells [1] = test: Caspase activity (Promega Caspase3/7 Glo assay); type: cell-based
# Method: Cells were cultured for 48 hours at the indicated concentration of drug, and then cell viability was measured by Promega CellTiter Glo assay and caspase activity was measured by Promega Caspase3/7 Glo assay. […] Anti-tumor activity is evident at 3 μM of treatment.
# NF-M = NF-M staining by fluorescent microscopy; type: cell-based; settings: 7 days on glass slides
# Method: Cells were cultured for 7 days with the indicated treatments on glass slides. Cells were fixed and stained with antibodies for NF-M and nucleus. Images were captured on a fluorescent microscope.
# SK-N-BE(2) cells [2] = test: Microarray gene expression and gene set enrichment analysis; type: cell-based, Homo sapiens; settings: 3 μM Compound B, 1 μM ATRA or combination, microarray 48 hr, fold relative to the DMSO control group
# Method: Gene expression from cells treated with ATRA single agent and combination of ATRA and HDAC1/2i were assessed at 2 hrs and 48 hrs of treatment (FIG. 12A). […] A function analysis of the data using the Ingenuity IPA platform was performed by Qiagen; overlap is observed in the top hits between treatment groups.
# Genes that statistically increase over 2-fold relative to the DMSO control were mapped on a Venn diagram (FIG. 12B).
# Neuroblastoma cell line SK-N-BE(2) cells were treated with 3 μM Compound B, 1 μM ATRA, or a combination of both at 37° C. over 2 hours (FIG. 12A) or 48 hours (FIG. 12B) and compared to the solvent (DMSO) control.
# [3] = system: retinoic acid receptor (RAR); test: Retinoic acid receptor ChIP-seq; type: cell-based; settings: 3 μM Compound B, 48 hours
# Description: Retinoic acid receptor active binding sites defined in any individual treatment group by ChIP-seq at 48 hrs after treatment were stacked (y-axis) and aligned to the center of the binding peak (x-axis) (FIG. 13). […] Many of the genes found near region 1 binding sites are involved in regulation of retinoid signaling and are transcription factors that drive differentiation (Table 10).
# Regions 1-7 of FIG. 13 are defined relative to DMSO: 1, [Combo] Increased; 2, [ATRA] Increased; 3, [ATRA] [Combo] Increased; 4, [Combo] [ATRA] [Compound B] Increased; 5, [Combo] [ATRA] Decreased; 6, [Compound B] Decreased; and 7, [Compound B] [Combo] [ATRA] Decreased.
# Neuroblastoma cell line SK-N-BE(2) cells were treated with 3 μM Compound B, 1 μM ATRA, or a combination of both at 37° C. over 48 hours and compared to the solvent (DMSO) control. Antibodies to pan-retinoic acid receptor were used to pull down DNA associated with the receptor binding and sequenced. Lists of binding regions were mapped to the chromosome and “associated” with a given gene if the binding region was located within 10,000 bp up- or down-stream of the gene in question. Binding regions were represented as a heatmap where the sites were stacked on the y-axis across treatments, the “0” mark on the x-axis is the center of the binding peak and the intensity of signal indicated by color. The bracketed regions are areas of statistical significance relative to the DMSO control as indicated on the plot.
# Table 12 lists the genes returned when the following conditions are met: 1) combo peak height >4 fold relative to the DMSO control group, and 2) combo expression >4 fold relative to the DMSO control group.
# SK-N-BE2 cells = test: Levels of proteins related to cell-cycle progression; type: cell-based; settings: 3 days in culture
# Method: The levels of proteins related to cell-cycle progression were assessed following treatment (SK-N-BE2 cells; 3 days in culture) with DMSO (control), Compound B alone, ATRA alone, and Compound B in combination with ATRA. p21 is increased by ATRA and enhanced by Compound B. Cyclin D1 is decreased in the combination setting relative to ATRA as a single agent. CDK2 and CDK4 are decreased in the combination setting with Compound B and ATRA.
# [4] = SK-N-BE(2) cells, 1 μM ATRA or combination, fold relative to the DMSO control group
compound,measurement,setting,value
"Nc1ccc(-c2cccs2)cc1NC(=O)c1ccc2c(c1)cc(C1CC1)n2CCN1CCOCC1 [Compound B, N-(2-amino-5-(thiophen-2-yl)phenyl)-2-cyclopropyl-1-(2-morpholinoethyl)-1H-indole-5-carboxamide]",histone acetylation,neuroblastoma cells,induces histone acetylation
same,caspase 3/7 induction,"SK-N-BE(2) cells [1]; 1 μM, 48 hours",Minimal
same,concentrations at which Caspase 3/7 activity is increased,"SK-N-BE(2) cells [1]; FIG. 2B, independent of ATRA",≥ 2 µM
same,NF-M staining,NF-M,general increase in NF-M staining
same,"Gene Expression Change, ACSL3",SK-N-BE(2) cells [2],2.23
same,"Gene Expression Change, ATP7A",SK-N-BE(2) cells [2],1.98
same,"Gene Expression Change, CDKN1A",SK-N-BE(2) cells [2],1.93
same,"Gene Expression Change, CRABP2",SK-N-BE(2) cells [2],1.18
same,"Gene Expression Change, CTSH",SK-N-BE(2) cells [2],3.05
same,"Gene Expression Change, CYP26A1",SK-N-BE(2) cells [2],0.99
same,"Gene Expression Change, CYP26B1",SK-N-BE(2) cells [2],1.87
same,"Gene Expression Change, DHRS3",SK-N-BE(2) cells [2],1.03
same,"Gene Expression Change, DUSP6",SK-N-BE(2) cells [2],3.33
same,"Gene Expression Change, ETS1",SK-N-BE(2) cells [2],3.00
same,"Gene Expression Change, HSPA5",SK-N-BE(2) cells [2],3.78
same,"Gene Expression Change, IER3",SK-N-BE(2) cells [2],2.33
same,"Gene Expression Change, NFKBIZ",SK-N-BE(2) cells [2],1.95
same,"Gene Expression Change, PCDH18",SK-N-BE(2) cells [2],2.53
same,"Gene Expression Change, PTGER2",SK-N-BE(2) cells [2],1.41
same,"Gene Expression Change, RARB",SK-N-BE(2) cells [2],1.14
same,"Gene Expression Change, RET",SK-N-BE(2) cells [2],1.34
same,"RAR Binding (Peak Height), ACSL3",[3]; [4],2.00
same,"RAR Binding (Peak Height), ATP7A",[3]; [4],2.20
same,"RAR Binding (Peak Height), CDKN1A",[3]; [4],0.50
same,"RAR Binding (Peak Height), CRABP2",[3]; [4],0.69
same,"RAR Binding (Peak Height), CTSH",[3]; [4],0.83
same,"RAR Binding (Peak Height), CYP26A1",[3]; [4],2.33
same,"RAR Binding (Peak Height), CYP26B1",[3]; [4],1.50
same,"RAR Binding (Peak Height), DHRS3",[3]; [4],1.00
same,"RAR Binding (Peak Height), DUSP6",[3]; [4],3.00
same,"RAR Binding (Peak Height), ETS1",[3]; [4],3.35
same,"RAR Binding (Peak Height), HSPA5",[3]; [4],2.00
same,"RAR Binding (Peak Height), IER3",[3]; [4],2.67
same,"RAR Binding (Peak Height), NFKBIZ",[3]; [4],3.33
same,"RAR Binding (Peak Height), PCDH18",[3]; [4],4.00
same,"RAR Binding (Peak Height), PTGER2",[3]; [4],0.75
same,"RAR Binding (Peak Height), RARB",[3]; [4],1.10
same,"RAR Binding (Peak Height), RET",[3]; [4],1.71
same,RAR binding to chromatin,"[3]; SK-N-BE(2), 1 μM ATRA, vs DMSO",can reduce RAR binding
same,p21 level,SK-N-BE2 cells,enhanced
